Drawing on PubChem BioAssay (NCI), this text covers GI50 and TGI for ten compounds.

Common to all, as to experiment: NCI anticancer screen, dose series, 48 h
For experiment [1], the system named is ACHN renal.
Experiment [2] concerns HS 578T breast.
In experiment [3] the test system is HT29 colon.
Experiment [4] relates to IGROV1 ovarian.
Experiment [5] concerns MOLT-4 leukemia.
In experiment [6] the test system is NCI-H460 lung.
Experiment [7] relates to OVCAR-3 ovarian.
Experiment [8] deals with TK-10 renal.

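Growth conditions: 96-well plates. Treatment: test compound, 48 hours, 5 concentrations. Analysis: linear interpolation between bracketing concentrations; unreached endpoints set to highest concentration. At the GI50, growth is halved. TGI: concentration producing complete growth inhibition.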 Some results are limits rather than exact numbers.

On to `COc1ccc2cc(-c3cc4c(oc3=O)-c3ccccc3OC4O)c(=O)oc2c1` (stereo not drawn), for which the GI50 is 16100 nM in experiment [1]; 20.8 µM in experiment [2]; 17.1 µM in experiment [3]; 16900 nM in experiment [4]; 50 µM in experiment [5]; 16.7 µM in experiment [6]. Also, the GI50 in experiment [7] was 15400 nM; in experiment [8] it was 19.9 µM. For the same compound, the TGI in experiment [1] is 30.1 µM; in experiment [2], 45.1 µM; in experiment [3], 31.5 µM; in experiment [4], 34 µM; in experiment [5], over 100 µM; in experiment [6], 34.7 µM. Further, the TGI in experiment [7] amounted to 30.6 µM; in experiment [8], 37 µM.

`C[C@]12CC[C@H](O)C[C@H]1CC[C@@H]1[C@@H]2CC[C@]2(C)[C@@H](C3=CC(=O)OC3)[C@@H](O)C[C@]12O`: the TGI was 1.82 µM in experiment [1]; over 21.8 µM in experiment [2]; 11 µM in experiment [3]; 37.3 µM in experiment [4]; 1.95 µM in experiment [5]; 1.72 µM in experiment [6]. The TGI came to 1.73 µM in experiment [7] and 1.99 µM in experiment [8].

As to `CC(=O)c1cc(C(=O)c2ccc3c(c2)Sc2ccccc2N3)c2c(C)cc(C)cn12`, the GI50 in experiment [1] is 605 nM; in experiment [2], 0.343 µM; in experiment [3], 0.315 µM; in experiment [4] it was 596 nM; in experiment [5] it was 0.465 µM; in experiment [6], 0.311 µM. The GI50 in experiment [7] is 222 nM; in experiment [8], 1.31 µM. Besides, the TGI in experiment [1] is over 40.1 µM; in experiment [2] it was over 36 µM; in experiment [3] it was 0.962 µM; in experiment [4], over 100 µM; in experiment [5], over 100 µM; in experiment [7] it was 0.596 µM. In addition, in experiment [8], the TGI was over 100 µM.

`CCOC(=O)c1c(C)n2c(=O)cc(C)c3c(O)c(O)cc1c32`: the GI50 is 1820 nM in experiment [1]; 25.6 µM in experiment [2]; 24.5 µM in experiment [3]; 4830 nM in experiment [4]; 1.34 µM in experiment [5]; 12.9 µM in experiment [6]. Further, the GI50 in experiment [7] is 1420 nM; in experiment [8], 5.47 µM. For the same compound, the TGI in experiment [1] was 31.2 µM; in experiment [2], over 100 µM; in experiment [3], over 100 µM; in experiment [4], 87 µM; in experiment [5] it was 15.2 µM; in experiment [6], over 100 µM. Besides, the TGI in experiment [7] is 9.94 µM; in experiment [8] it was over 100 µM.

On to `CNC(=O)OCc1c2ccncc2c(C)c2c1[nH]c1ccccc12`, for which the TGI was 0.522 µM in experiment [1]; 3.12 µM in experiment [2]; 1.59 µM in experiment [3]; 1.3 µM in experiment [4]; over 100 µM in experiment [5]; 1.81 µM in experiment [6]. The TGI in experiment [7] is 1.74 µM; in experiment [8] it was 0.968 µM.

For `c1cc2[nH]ncc2cc1-c1nc2ccc3[nH]ncc3c2c2c1CCCC2`, the GI50 in experiment [1] is 583 nM; in experiment [2] it was 1.71 µM; in experiment [3], 1.59 µM; in experiment [4] it was 541 nM; in experiment [5], 1.13 µM; in experiment [6] it was 1.2 µM. Also, the GI50 is 1780 nM in experiment [7] and 0.913 µM in experiment [8]. For the same compound, the TGI in experiment [1] is 10.7 µM; in experiment [2], 13.7 µM; in experiment [3], 13.1 µM; in experiment [4], 7.29 µM; in experiment [5], over 20.9 µM; in experiment [6], 10.5 µM. Moreover, the values for the TGI in experiment [7] and in experiment [8] were 7.58 µM and 21.8 µM, respectively.

Regarding `Cc1ccccc1-n1ncc(C(=O)c2ccccc2)c1N`, the GI50 in experiment [1] was over 25000 nM; in experiment [2] it was over 25 µM; in experiment [3], over 25 µM; in experiment [4], over 25000 nM; in experiment [5], over 25 µM; in experiment [6], over 25 µM. The GI50 is over 25000 nM in experiment [7] and over 25 µM in experiment [8]. The TGI in experiment [1], in experiment [2], in experiment [3], in experiment [4], in experiment [5] and in experiment [6] was over 25 µM each time. For the same compound, the TGI in experiment [7] and in experiment [8] was over 25 µM in each case.

For the compound `O=C1Nc2c(C(F)(F)F)cccc2[C@@]1(c1ccc(O)cc1)c1ccc(OC(F)(F)F)cc1`, the GI50 is 17.8 nM in experiment [1]; under 0.01 µM in experiment [2]; 0.0177 µM in experiment [3]; under 10 nM in experiment [4]; 6.51 µM in experiment [5]; 4.19 µM in experiment [6]. In addition, the figures for the GI50 in experiment [7] and in experiment [8] were under 10 nM and under 0.01 µM, respectively. For the same compound, the TGI was 0.0349 µM in experiment [1]; under 0.01 µM in experiment [2]; 0.0435 µM in experiment [3]; 0.0417 µM in experiment [4]; 25.4 µM in experiment [5]; 19.7 µM in experiment [6]. The values for the TGI in experiment [7] and in experiment [8] were under 0.0171 µM and under 0.01 µM, respectively.

Turning to `CC(C)(C)C(=O)OCOP(=O)(OCOC(=O)C(C)(C)C)C1CC(O)N(O)C1=O` (stereo not drawn), the GI50 in experiment [1] was 6040 nM; in experiment [2], 2.59 µM; in experiment [3], 3.07 µM; in experiment [4], 2830 nM; in experiment [5], 3.91 µM; in experiment [6], 4.35 µM. Further, the values for the GI50 in experiment [7] and in experiment [8] were 9790 nM and 20.2 µM, respectively. In addition, the TGI in experiment [1] was over 100 µM; in experiment [2], 7.85 µM; in experiment [3] it was 16.4 µM; in experiment [4], 9.72 µM; in experiment [5] it was over 100 µM; in experiment [6], over 100 µM. For the same compound, the TGI in experiment [7] and in experiment [8] was over 100 µM throughout.

With `O=C(c1ccccc1)c1ccc(Oc2ccc([N+](=O)[O-])cc2[N+](=O)[O-])cc1`, the GI50 in experiment [1] was 3720 nM; in experiment [2] it was 3.46 µM; in experiment [3], 4.08 µM; in experiment [4], 2390 nM; in experiment [5], 3.08 µM; in experiment [6], 8.62 µM. The GI50 in experiment [7] is 2300 nM; in experiment [8], 8.33 µM. The TGI in experiment [1] was 13.6 µM; in experiment [2], 38.7 µM; in experiment [3], 20.8 µM; in experiment [4], 5.61 µM; in experiment [5] it was over 100 µM; in experiment [6], 33.3 µM. Also, the TGI was 5.07 µM in experiment [7] and over 100 µM in experiment [8].
